Test results taken from paper PMC6780721, “GOBP1 Plays a Key Role in Sex Pheromones and Plant Volatiles Recognition in Yellow Peach Moth, Conogethes punctiferalis (Lepidoptera: Crambidae)” (Insects, 2019).
Like-named read-outs stand apart in the source and are kept apart here.

Tests used:
GOBP1 = GOBP1 (Conogethes punctiferalis, UniProt A0A2H4FXX2); experiment: Fluorescence competitive binding assay with 1-NPN, recombinant GOBP1; conditions: for Intensity (%) GOBP1: 1-NPN fluorescence remaining in competitive binding, 2 µM protein, 2 µM 1-NPN, triplicates; for interaction with GOBP1 (in words): fluorescence binding assays, sex pheromones
GOBP1, sequence (A0A2H4FXX2 entry or part of it): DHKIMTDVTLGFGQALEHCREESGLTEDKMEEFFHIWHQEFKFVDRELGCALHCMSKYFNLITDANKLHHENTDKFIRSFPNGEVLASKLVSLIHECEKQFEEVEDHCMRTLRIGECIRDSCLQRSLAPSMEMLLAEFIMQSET
Text: (§1) Signal peptides were removed from complete ORF sequences of both genes and primers were designed, using antennal cDNA as the templates the GOBP1 and 2 were amplified and cloned using pEASY-T vector (TransGen Biotech, Beijing, China). The sense and antisense primers designed for GOBP1 and GOBP2. GOBP1 sense primers: 5′-[…]-3′ and antisense primer: 5′-[…]-3′ (BamH I and Hind III restriction sites are underlined); GOBP2 sense primer: 5′-[…]-3′ and antisense primer: 5′-[…]-3′ (EcoR I and Hind III restriction sites are underlined). The expected sequences were purified and cloned into the bacterial expression vector pET-30a (+) digested with the same enzymes. Then the plasmid was transformed into BL21 (DE3) competent cells (TransGen, Beijing, China) and the positive clone was inoculated in a liquid LB medium (4 L/protein) induced by 1 mM isopropyl-b-d-thiogalactoside (IPTG, Coollaber Science and Technology, Beijing, China) and placed in shaking incubator at 37 °C for 6 h. The induced bacterial cells were harvested from volume of 4 L liquid LB medium and centrifuged at 4 °C for 10 min (10,000 rpm). The pellets were subjected to ultrasonication and the recombinant GOBPs protein were purified by the Ni^2+-IDA column (His tagged) with a gradient concentration imidazole washing. The precipitate was resolved using 8 M carbamide and proteins were dialyzed in PBS buffer (pH 7.4) to remove the remaining chemical impurities from the protein. Purified protein concentrations of GOBP1 and GOBP2 was determined by the method of Bradford using BSA as standard The western blot method was performed to analyze the correct expression. […] The gel was sandwiched with a polyvinylidene fluoride (PVDF) membrane and sample in the gel was transferred to the PVDF (electrophoresis; 100 V, 200mA, 1 h). The film was washed four times using PBST (1% Tween-20 in 0.5 M Phosphate-buffered saline). 5% skim milk powder in PBST was used as blocking buffer. The PVDF membrane was incubated in primary antibody His (1:1000) and placed on shaker for overnight at 4 °C. The membrane was washed again using PBST and treated with second antibody sheep anti-rabbit antibody (1:5000) at 37 °C for 1 h. A final wash was given to the membrane and developed in ImageQuant LAS 4000 (GE, Pittsburgh, PA, USA) using western optimized HRP (horseradish peroxidase) reagent (Pierce, ELC kit, Thermoscientific, USA).
(§2) The fluorescence intensity was recorded on a FluoroMax-4 spectrophotometer (Horiba Scientific, Piscataway, NJ, USA) at room temperature using a 1 cm light path fluorimeter quartz cuvette. The fluorescent probe N-phenyl-1-naphthylamine (1-NPN) and all the tested chemicals were dissolved in HPLC purity methanol. The final concentration was prepared 2 mM. […] The fluorescence of 1-NPN was excited at 337 nm and emission spectra were recorded between […]. […] The GraphPad Prism 5 (GraphPad Software, Inc. San Diego, CA) was used to estimate the K1-NPN (KD of complex protein /1-NPN) values by nonlinear regression for a unique site of binding. It was assumed that the proteins were 100% active, with a stoichiometry of 1:1 (protein:ligand) at saturation. […] In the equation, [1-NPN] in the free concentration of 1-NPN, and K1-NPN is the dissociation constant of the complex protein/1-NPN.

GOBP2 = GOBP2 (Conogethes punctiferalis, UniProt A0A146JYY2); experiment: Fluorescence competitive binding assay with 1-NPN, recombinant GOBP2; conditions: for Intensity (%) GOBP2: 1-NPN fluorescence remaining in competitive binding, 2 µM protein, 2 µM 1-NPN, triplicates
GOBP2, sequence (A0A146JYY2 entry or part of it): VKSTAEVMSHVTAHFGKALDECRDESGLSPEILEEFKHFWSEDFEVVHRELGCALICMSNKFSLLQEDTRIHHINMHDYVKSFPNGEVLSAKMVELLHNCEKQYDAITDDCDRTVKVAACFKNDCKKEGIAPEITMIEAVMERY
Text: as §1, §2

[1] = dissociation constant calculated from IC50: KD = [IC50]/(1+[1-NPN]/K1-NPN), pH 7.4, mean ± SD, read-out: KD (μM) GOBP1
[2] = ligand concentration halving initial 1-NPN fluorescence, pH 7.4, mean ± SD, read-out: IC50 (μM) GOBP1
[3] = dissociation constant calculated from IC50: KD = [IC50]/(1+[1-NPN]/K1-NPN), pH 7.4, mean ± SD, read-out: KD (μM) GOBP2
[4] = ligand concentration halving initial 1-NPN fluorescence, pH 7.4, mean ± SD, read-out: IC50 (μM) GOBP2

Structure (SMILES) | Intensity (%) GOBP1 (GOBP1; pH 7.4, mean ± SD) [%] | Kd (GOBP1; [1]) [µM] | IC50 (GOBP1; [2]) [µM] | Intensity (%) GOBP2 (GOBP2; pH 7.4, mean ± SD) [%] | Kd (GOBP2; [3]) [µM] | IC50 (GOBP2; [4]) [µM] | interaction with GOBP1 (in words) (GOBP1) | Kd (GOBP1) [µM] | Kd (GOBP2) [µM] | IC50 (GOBP1) [µM] | IC50 (GOBP2) [µM]
c1ccc(Nc2cccc3ccccc23)cc1 [1-NPN, N-phenyl-1-naphthylamine, reference compound] |  |  |  |  |  |  |  | 0.74 ± 0.41 | 0.7 ± 0.38 |  | 
C=C1CC/C=C(\C)CC[C@@H]2[C@@H]1CC2(C)C [Caryophllene] | 68.98 ± 3.16 | 3.88 ± 0.91 | 9.09 ± 2.42 | 89.93 ± 2.15 | 8.67 ± 1.12 | 21 ± 2.1 |  |  |  |  | 
O=Cc1ccccc1 [Benzaldehyde] | 83.58 ± 6.61 |  |  | 94.76 ± 7.32 |  |  |  | 8.79 ± 0.59 | 31.9 ± 3.03 | 20.6 ± 1.31 | 77.1 ± 1.4
CC1=CCC2CC1C2(C)C (stereo not drawn) [α-Pinene] | 64.96 ± 3.26 |  |  | 98.57 ± 1.13 |  |  |  | 4.73 ± 0.48 | 28.1 ± 4.06 | 11.1 ± 3.47 | 67.9 ± 4.66
CC/C=C\CCO [Cis-3-hexen-1-ol] | 94.99 ± 1.78 |  |  | 96.93 ± 0.99 |  |  |  | 33.5 ± 1.21 | 21.2 ± 1.14 | 78.63 ± 0.23 | 51.3 ± 1.6
C=C1CCC2CC1C2(C)C (stereo not drawn) [β-Pinene] | 66.21 ± 2.96 |  |  | 97.15 ± 3.95 |  |  |  | 4.24 ± 0.69 | 13.9 ± 1.36 | 9.94 ± 2.72 | 33.7 ± 3.29
C=C(C)[C@H]1CC=C(C)CC1 [Limonene] | 43.27 ± 2.47 | 1.54 ± 0.39 | 3.62 ± 0.89 | 92.62 ± 1.21 | 14.7 ± 2.78 | 35.5 ± 1.14 |  |  |  |  | 
C=CC(C)(O)CCC=C(C)C (centres unmarked) [Linalool] | 74.52 ± 2.42 |  |  | 91.86 ± 0.71 |  |  |  | 6.7 ± 0.69 | 18.5 ± 0.48 | 15.7 ± 1.61 | 44.8 ± 1.16

Second part, led by results:

Intensity (%) GOBP1 (GOBP1; pH 7.4, mean ± SD) [%] | Kd (GOBP1; [1]) [µM] | IC50 (GOBP1; [2]) [µM] | Intensity (%) GOBP2 (GOBP2; pH 7.4, mean ± SD) [%] | Kd (GOBP2; [3]) [µM] | IC50 (GOBP2; [4]) [µM] | interaction with GOBP1 (in words) (GOBP1) | Structure (SMILES) | Kd (GOBP1) [µM] | Kd (GOBP2) [µM] | IC50 (GOBP1) [µM] | IC50 (GOBP2) [µM]
71.04 ± 8.80 | 5.69 ± 0.36 | 13.3 ± 2.41 | 96.99 ± 2.63 | 38.3 ± 1.09 | 92.8 ± 3.83 |  | CCCCCCCCC=O [Nonanal] |  |  |  | 
45.50 ± 4.58 | 3.11 ± 0.71 | 7.31 ± 1.43 | 96.44 ± 1.50 | 28.1 ± 0.62 | 68.1 ± 3.7 |  | CCCCCC=O [n-Hexanal] |  |  |  | 
41.45 ± 2.51 | 0.35 ± 0.04 | 0.83 ± 0.09 | 55.64 ± 1.78 | 1.64 ± 0.03 | 3.98 ± 0.36 |  | CC(C)=CCC/C(C)=C/CC/C(C)=C/CO [Farnesol] |  |  |  | 
48.64 ± 4.35 | 0.55 ± 0.08 | 1.29 ± 0.14 | 67.94 ± 1.79 | 8.7 ± 0.74 | 21.1 ± 1.83 |  | CCCCCCCCCCCCCCCC=O [Hexadecanal] |  |  |  | 
47.29 ± 7.52 | 2.09 ± 0.45 | 4.9 ± 0.54 | 84.05 ± 2.25 | 8.86 ± 0.93 | 21.4 ± 4.15 | can interact | CCCCC/C=C/CCCCCCCCC=O [E10-16:Ald, (E)-10-hexadecenal] |  |  |  | 
75.78 ± 5.17 | 5.76 ± 0.64 | 13.5 ± 3.22 | 96.80 ± 1.33 | 23.1 ± 4.68 | 56 ± 1.54 |  | CCCCCCC=O [Heptanal] |  |  |  | 
78.33 ± 2.89 | 7.17 ± 0.67 | 16.8 ± 2.41 | 98.12 ± 1.92 | 39.9 ± 9.7 | 96.7 ± 2.41 |  | CCCCCCCCCCC=O [Undecanal] |  |  |  | 
97.23 ± 0.89 | 25.7 ± 0.43 | 60.4 ± 2.44 | 94.24 ± 1.82 |  | 95.2 ± 1.68 |  | CCCCCCO [n-Hexanol] |  |  |  | 
95.2 ± 1.12 | 14.3 ± 1.74 | 33.5 ± 1.02 | 96.54 ± 1.39 |  | 98.7 ± 2.3 |  | CCCCCO [1-Amyl alcohol] |  |  |  | 
20.88 ± 0.48 | 1.2 ± 0.09 | 2.82 ± 0.44 | 58.63 ± 2.72 | 3.58 ± 0.62 | 8.65 ± 1.87 | can interact | CCCCC/C=C\CCCCCCCCC=O [Z10-16:Ald, (Z)-10-hexadecenal] |  |  |  | 
45.8 ± 0.56 |  |  | 85.52 ± 1.47 |  |  |  | CCCCCCCCCCCCCCO [1-Tetradecanol] | 2.05 ± 0.43 | 22.3 ± 1.89 | 4.81 ± 0.72 | 54 ± 2.56
